The values that follow come from patent US20060211698A1, “Bicyclic heteroaryl derivatives for treating viruses” (Genelabs, Inc., priority 2005, published 2006).

Structures are written as SMILES.

The assay has as its target T1, HCV-NS5b (Hepatitis C virus genotype 1b, UniProt Q9WMX2).
T1 construct: The cloned fragment was missing the C terminus 21 amino acid residues; (His)6 (C); made in house; host or cells: XL-1 cells (E. coli)
Kind of assay: HCV-NS5b Enzyme Assay. The class given is biochemical. The following applies: 1 μM test compound; incorporation of [3H]-UTP, 37° C., 2 hours. The text has this: The coding sequence of NS5b protein was cloned by PCR from pFKI389luc/NS3-3′/ET as described by Lohmann, V., et al. (1999) Science 285, 110-113 using the following primers: • […] (SEQ. ID. NO. 1) • […] (SEQ. ID. NO. 2)
The cloned fragment was missing the C terminus 21 amino acid residues. The cloned fragment is inserted into an IPTG-inducible expression plasmid that provides an epitope tag (His)6 at the carboxy terminus of the protein.
The recombinant enzyme was expressed in XL-1 cells and after induction of expression, the protein was purified using affinity chromatography on a nickel-NTA column. Storage condition is 10 mM Tris-HCl pH 7.5, 50 mM NaCl, 0.1 mM EDTA, 1 mM DTT, 20% glycerol at −20° C.
The polymerase activity was assayed by measuring incorporation of radiolabeled UTP into a RNA product using a biotinylated, heteropolymeric template, which includes a portion of the HCV genome. Typically, the assay mixture […] contains 10 mM Tris-HCl (pH 7.5), 5 mM MgCl2, 0.2 mM EDTA, 10 mM KCl, 1 unit/μL RNAsin. 1 mM DTT, 10 μM each of NTP, including [^3H]-UTP, and 10 ng/μL biotinylated heteropolymeric template. 20× test compound in 2 μl's was then added as a 100% DMSO solution to achieve a final DMSO concentration of 5%. For IC50 determination a 10-point dose response was used. The compounds were serial diluted 2-fold […]. Typically for IC50's, compounds were tested starting at 50 uM or 2 μm depending on the potency. Reactions were started with addition of 10×NS5B in 4 μl's and allowed to incubate at 37° C. for 2 hours. Reactions were quenched with 8 μL of 100 mM EDTA and reaction mixtures (30 μL) were transferred to streptavidin-coated scintillation proximity microtiter plates (FlashPlates) and incubated at 4° C. overnight. Incorporation of radioactivity was determined by scintillation counting (cpm). The % Inhibition at a particular concentration was determined using the following equation, % Inhibition=100−[100*(cpm with inhibitor−bg)/(cpm with no inhibitor−bg)] where bg was the background with no enzyme.
Consider `O=C(O)c1ccc2c(C3CCCCC3)c(-c3ccc4nc(-c5ccccc5)ccc4c3)n(CC(=O)N3CCOCC3)c2c1` [Compound 220, 1-[N-morpholinocarbonylmethyl]-2-[2-phenylquinolin-6-yl]-3-cyclohexyl-1H-indole-6-carboxylic acid], for which the “% inhibition @ 1 μM” value came out at 96.4%.

Usually inhibition stands for the change of the read-out against control, counted positive when it falls. As for `Cc1nc(C)c(-c2ccc3cc(-c4c(C5CCCCC5)c5ccc(C(=O)O)cc5n4CC(=O)NCCN4CCOCC4)ccc3n2)s1` [Compound 237, 3-Cyclohexyl-2-[2-(2,4-dimethyl-thiazol-5-yl)-quinolin-6-yl]-1-[(2-morpholin-4-yl-ethylcarbamoyl)-methyl]-1H-indole-6-carboxylic acid], the inhibition at 1 µM was found to be 94.7%.

Take `CCN(CC)C1CCN(C(=O)Cn2c(-c3ccc4nc(-c5sc(C)nc5C)ccc4c3)c(C3CCCCC3)c3ccc(C(=O)O)cc32)CC1` [Compound 275, 3-Cyclohexyl-1-[2-(4-diethylamino-piperidin-1-yl)-2-oxo-ethyl]-2-[2-(2,4-dimethyl-thiazol-5-yl)-quinolin-6-yl]-1H-indole-6-carboxylic acid]: the inhibition at 1 µM is 98.9%.

In the case of `C=Cc1ccc(-c2ccc(-c3c(C4CCCCC4)c4ccc(C(=O)O)cc4n3CC(=O)N3CCOCC3)cc2)cc1` [Compound 314, 3-Cyclohexyl-1-(2-morpholin-4-yl-2-oxo-ethyl)-2-(4′-vinyl-biphenyl-4-yl)-1H-indole-6-carboxylic acid], the inhibition at 1 µM was determined as 98%.

Consider `COc1ccc(-c2ccc3cc(-c4c(C5CCCCC5)c5ccc(C(=O)O)cc5n4CC(=O)N4CCOCC4)ccc3n2)c(OC)c1OC` [Compound 272, 3-Cyclohexyl-1-(2-morpholin-4-yl-2-oxo-ethyl)-2-[2-(2,3,4-trimethoxy-phenyl)-quinolin-6-yl]-1H-indole-6-carboxylic acid], for which the inhibition at 1 µM stood at 101%.

Turning to `Cc1nc(C)c(-c2ccc3cc(-c4c(C5CCCCC5)c5ccc(C(=O)O)cc5n4CC(=O)N4CCOCC4)ccc3n2)o1` [Compound 260, 3-Cyclohexyl-2-[2-(2,4-dimethyl-oxazol-5-yl)-quinolin-6-yl]-1-(2-morpholin-4-yl-2-oxo-ethyl)-1H-indole-6-carboxylic acid], the inhibition at 1 µM was found to be 96%.

On to `Cc1nc(C)c(-c2ccc3cc(-c4c(C5CCCCC5)c5ccc(C(=O)O)cc5n4CC(=O)N4CCCC4C)ccc3n2)s1` (centres unmarked) [Compound 277, 3-Cyclohexyl-2-[2-(2,4-dimethyl-thiazol-5-yl)-quinolin-6-yl]-1-[2-(2-methyl-pyrrolidin-1-yl)-2-oxo-ethyl]-1H-indole-6-carboxylic acid], for which the inhibition at 1 µM stood at 96.3%.

Regarding `Cc1nc(C)c(-c2ccc3cc(-c4c(C5CCCCC5)c5ccc(C(=O)NS(C)(=O)=O)cc5n4CC(=O)N4CCOCC4)ccc3n2)s1` [Compound 240, N-[3-Cyclohexyl-2-[2-(2,4-dimethyl-thiazol-5-yl)-quinolin-6-yl]-1-(2-morpholin-4-yl-2-oxo-ethyl)-1H-indole-6-carbonyl]-methanesulfonamide], the inhibition at 1 µM is 97.7%.

As to `COc1ccc(-c2ccc3cc(-c4c(C5CCCCC5)c5ccc(C(=O)O)cc5n4CC(=O)N4CCOCC4)ccc3n2)c(F)c1` [Compound 257, 3-Cyclohexyl-2-[2-(2-fluoro-4-methoxy-phenyl)-quinolin-6-yl]-1-(2-morpholin-4-yl-2-oxo-ethyl)-1H-indole-6-carboxylic acid], the inhibition at 1 µM came to 98.6%.

`N#Cc1cccc(-c2ccc(-c3c(C4CCCCC4)c4ccc(C(=O)O)cc4n3CC(=O)N3CCOCC3)cc2)c1` [Compound 306, 2-(3′-Cyano-biphenyl-4-yl)-3-cyclohexyl-1-(2-morpholin-4-yl-2-oxo-ethyl)-1H-indole-6-carboxylic acid]: the inhibition at 1 µM was 97.8%.

Consider `O=C(O)c1ccc2c(C3CCCCC3)c(-c3ccc4nc(-c5ccccc5Cl)ccc4c3)n(CC(=O)N3CCOCC3)c2c1` [Compound 276, 2-[2-(2-Chloro-phenyl)-quinolin-6-yl]-3-cyclohexyl-1-(2-morpholin-4-yl-2-oxo-ethyl)-1H-indole-6-carboxylic acid], for which the inhibition at 1 µM turned out to be 97.6%.

Consider `COc1ccc(-c2ccc(Cl)cc2)c(-c2ccc3cc(-c4c(C5CCCCC5)c5ccc(C(=O)O)cc5n4CC(=O)N4CCNCC4)ccc3n2)c1` [Compound 204, 1-[N-piperazinylcarbonylmethyl]-2-[2-(4′-chloro-4-methoxy-biphen-2-yl)-quinolin-6-yl]-3-cyclohexyl-1H-indole-6-carboxylic acid], for which the inhibition at 1 µM was 95.9%.

`Cc1nc(C)c(-c2ccc3cc(-c4c(C5CCCCC5)c5ccc(C(=O)O)cc5n4CC(=O)N4CCC(N5CCCC5)CC4)ccc3n2)s1` [Compound 214, 1-[2-oxo-2-(4-pyrrolidin-1-yl-piperidin-1-yl)-ethyl]-2-[2-(2,4-dimethylthiazol-5-yl)-quinolin-6-yl]-3-cyclohexyl-1H-indole-6-carboxylic acid]: the inhibition at 1 µM is 92.1%.

Turning to `Cc1nc(C)c(-c2ccc3cc(-c4c(C5CCCCC5)c5ccc(C(=O)O)cc5n4CC(=O)N4CCC(N(C)C)CC4)ccc3n2)s1` [Compound 274, 3-Cyclohexyl-1-[2-(4-dimethylamino-piperidin-1-yl)-2-oxo-ethyl]-2-[2-(2,4-dimethyl-thiazol-5-yl)-quinolin-6-yl]-1H-indole-6-carboxylic acid], the inhibition at 1 µM was determined as 96%.

On to `O=C(O)c1ccc2c(C3CCCCC3)c(-c3ccc4cc(-c5ccccc5)ccc4c3)n(CC(=O)N3CCOCC3)c2c1` [Compound 328, 3-Cyclohexyl-1-(2-morpholin-4-yl-2-oxo-ethyl)-2-(6-phenyl-naphthalen-2-yl)-1H-indole-6-carboxylic acid], for which the inhibition at 1 µM is 101%.

In the case of `COc1ccccc1-c1ccc(-c2c(C3CCCCC3)c3ccc(C(=O)O)cc3n2CC(=O)N2CCOCC2)cc1` [Compound 311, 3-Cyclohexyl-2-(2′-methoxy-biphenyl-4-yl)-1-(2-morpholin-4-yl-2-oxo-ethyl)-1H-indole-6-carboxylic acid], the inhibition at 1 µM turned out to be 102%.

For `Cc1ccc(-c2ccc(-c3c(C4CCCCC4)c4ccc(C(=O)O)cc4n3CC(=O)N3CCOCC3)cc2)s1` [Compound 316, 3-Cyclohexyl-2-[4-(5-methyl-thiophen-2-yl)-phenyl]-1-(2-morpholin-4-yl-2-oxo-ethyl)-1H-indole-6-carboxylic acid], the inhibition at 1 µM was 101%.

Regarding `Cc1nc(C)c(-c2ccc3cc(-c4[nH]c5c(C)c(C(=O)O)ccc5c4C4CCCCC4)ccc3n2)s1` [Compound 334, 3-Cyclohexyl-2-[2-(2,4-dimethyl-thiazol-5-yl)-quinolin-6-yl]-7-methyl-1H-indole-6-carboxylic acid], the inhibition at 1 µM worked out at 86.9%.

Consider `Cn1cccc1-c1ccc2cc(-c3c(C4CCCCC4)c4ccc(C(=O)O)cc4n3CC(=O)N3CCOCC3)ccc2n1` [Compound 271, 3-Cyclohexyl-2-[2-(1-methyl-1H-pyrrol-2-yl)-quinolin-6-yl]-1-(2-morpholin-4-yl-2-oxo-ethyl)-1H-indole-6-carboxylic acid], for which the inhibition at 1 µM came out at 100%.

On to `O=C(O)c1ccc2c(C3CCCCC3)c(-c3ccc4nc(-c5ccc(Cl)s5)ccc4c3)n(CC(=O)N3CCOCC3)c2c1` [Compound 225, 1-[N-morpholinocarbonylmethyl]-2-[2-(5-chlorothien-2-yl)quinolin-6-yl]-3-cyclohexyl-1H-indole-6-carboxylic acid], for which the “% inhibition @ 1 μM” value was determined as 98.0%.

With `Cc1cccc(-c2ccc3cc(-c4c(C5CCCCC5)c5ccc(C(=O)O)cc5n4CC(=O)N4CCOCC4)ccc3c2)c1` [Compound 321, 3-Cyclohexyl-1-(2-morpholin-4-yl-2-oxo-ethyl)-2-(6-m-tolyl-naphthalen-2-yl)-1H-indole-6-carboxylic acid], the inhibition at 1 µM was determined as 98.2%.

In the case of `Cc1nc(C)c(-c2ccc3cc(-c4c(C5CCCCC5)c5ccc(C#N)cc5n4CC(=O)N4CCOCC4)ccc3n2)s1` [Compound 243, 3-Cyclohexyl-2-[2-(2,4-dimethyl-thiazol-5-yl)-quinolin-6-yl]-1-(2-morpholin-4-yl-2-oxo-ethyl)-1H-indole-6-carbonitrile], the inhibition at 1 µM came out at 37.8%.

As to `CN(C)c1ccc(-c2ccc(-c3c(C4CCCCC4)c4ccc(C(=O)O)cc4n3CC(=O)N3CCOCC3)cc2)cc1` [Compound 299, 3-Cyclohexyl-2-(4′-dimethylamino-biphenyl-4-yl)-1-(2-morpholin-4-yl-2-oxo-ethyl)-1H-indole-6-carboxylic acid], the inhibition at 1 µM was determined as 94.9%.
